From PubChem BioAssay AID2286 (Southern Research Specialized Biocontainment Screening …, 2010)
Active and inactive are the calls of the source.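 The calls were made as follows: active = minimum cell viability of 80% or lower across the dose range, counted as toxic; inactive = minimum cell viability above 80%.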

Experiment: MAGI-CCR5 and HeLa-R5-16 cytotoxicity, dose response, cytotoxicity control for HIV-1 fusion inhibitor project, cell-based, MAGI and MAGI-HeLa co-culture (AID 2286);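 also: cells exposed to compound for at least 64 h before ATP readout; 100% = median of DMSO vehicle wells with no ATP signal meaning 0%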
Details: MAGI-CCR5 cells viability, CellTiter-Glo ATP luminescence; for minimum viability: measured here: MAGI minimum viability across doses
[1] = MAGI-HeLa co-culture viability, at 50 µM, stronger effect = lower value
[2] = at 1.56 µM, stronger effect = lower value
[3] = at 12.5 µM, stronger effect = lower value
[4] = at 0.2 µM, stronger effect = lower value

## COc1ccc(C(=O)Nc2ccccc2C(=O)O)cc1NC(=O)C(c1ccccc1)c1ccccc1
[1]
  viability: 116%
At 50 µM (top of the series)
  viability: 99.7% (inactive)
At 6.25 µM, stronger effect = lower value
  minimum viability: 89.1%

## CC(C)COc1ccc(-c2nn(-c3ccccc3)cc2/C=C2/SC(=S)N(CC(=O)O)C2=O)cc1
[1]
  viability: 90.2%
At 50 µM (top of the series)
  viability: 81.5% (inactive)
At 50 µM, stronger effect = lower value
  minimum viability: 81.5%

## Cc1ccc(F)c(NC(=O)/C(C#N)=C(\O)c2ccc(C(C)(C)C)cc2)c1
[1]
  viability: 101%
At 50 µM, stronger effect = lower value
  minimum viability: 76.4%

## N#Cc1c(-c2ccccc2)nc(SCC(=O)N2c3ccccc3Sc3ccccc32)[nH]c1=O
[1]
  viability: 103%
At 50 µM (top of the series)
  viability: 85.5% (inactive)
[2]
  minimum viability: 83.6%

## O=C(O)CCN1C(=O)/C(=C\c2cccc(OCC(=O)Nc3ccc(Cl)cc3)c2)SC1=S
[1]
  viability: 88%
At 50 µM, stronger effect = lower value
  minimum viability: 73.5%

## O=C(O)c1ccc(NS(=O)(=O)c2ccc3c(c2)C2C=CCC2C(c2ccccc2F)N3)cc1 (configuration not stated)
[1]
  viability: 111%
At 50 µM (top of the series)
  viability: 102% (inactive)
At 3.13 µM, stronger effect = lower value
  minimum viability: 93.8%

## O=C(O)C(c1ccccc1)N1C(=O)/C(=C\c2ccc(O)c(O)c2)SC1=S (configuration not stated)
[1]
  viability: 95.1%
At 50 µM (top of the series)
  viability: 105% (inactive)
[3]
  minimum viability: 99.2%

## O=C(Nc1cccc(C(F)(F)F)c1)c1cccc(NS(=O)(=O)c2ccc(O)c(C(=O)O)c2)c1
[1]
  viability: 107%
At 50 µM (top of the series)
  viability: 85.7% (inactive)
At 25 µM, stronger effect = lower value
  minimum viability: 83.3%

## CC(C)(C)OC(=O)N1CCC(c2cc(=O)n3[nH]cc(C(=O)Nc4ccc(F)c(Cl)c4)c3n2)CC1
[1]
  viability: 98.3%
At 50 µM (top of the series)
  viability: 97.5% (inactive)
At 25 µM, stronger effect = lower value
  minimum viability: 88.7%

## COc1cc(/C=C2/SC(=S)N(CC(=O)O)C2=O)ccc1OCC(=O)Nc1ccc(C)c(C)c1
[1]
  viability: 107%
At 50 µM (top of the series)
  viability: 103% (inactive)
[4]
  minimum viability: 98.9%

## COC(=O)c1sc(-c2ccc(C(C)(C)C)cc2)cc1NC(=O)CSCC(=O)O
[1]
  viability: 105%
At 50 µM (top of the series)
  viability: 83.5% (inactive)
At 50 µM, stronger effect = lower value
  minimum viability: 83.5%

## CCS(=O)(=O)C1=NN2C(=N)/C(=C\c3ccc(OS(=O)(=O)c4ccccc4)c(OC)c3)C(=O)N=C2S1
[1]
  viability: 97.9%
At 50 µM (top of the series)
  viability: 85.5% (inactive)
[2]
  minimum viability: 82.4%

## CC1(C)CC(=O)C2=C(C1)c1c(ccc3ccccc13)NC2c1cc([N+](=O)[O-])cc([N+](=O)[O-])c1O (configuration not stated)
[1]
  viability: 107%
At 50 µM, stronger effect = lower value
  minimum viability: 56%

## O=C(O)c1cc(NN=C2c3ccccc3-c3ccccc32)ccc1Cl
[1]
  viability: 114%
At 50 µM (top of the series)
  viability: 93.1% (inactive)
At 50 µM, stronger effect = lower value
  minimum viability: 93.1%

## CCOC(=O)c1sc(N2C(=O)C(O)=C(C(=O)c3ccco3)C2c2cccc([N+](=O)[O-])c2)nc1C (configuration not stated)
[1]
  viability: 110%
At 50 µM (top of the series)
  viability: 83.5% (inactive)
At 50 µM, stronger effect = lower value
  minimum viability: 83.5%

## Cc1cc(/C=C2/C(=N)N3C(=NC2=O)SN=C3S(C)(=O)=O)c(C)n1-c1ccccc1
[1]
  viability: 116%
At 50 µM (top of the series)
  viability: 104% (inactive)
[4]
  minimum viability: 101%

## N#Cc1c(-c2ccccc2)nc(SCc2cccc(C(F)(F)F)c2)[nH]c1=O
[1]
  viability: 115%
At 50 µM (top of the series)
  viability: 82.1% (inactive)
At 50 µM, stronger effect = lower value
  minimum viability: 82.1%

## COc1cc(OC)c2c(O)c3c(c(-c4c5c(c(O)c6c(OC)cc(OC)cc46)CO[C@@H](C)[C@H]5O)c2c1)[C@H](O)[C@H](C)OC3
[1]
  viability: 102%
At 50 µM (top of the series)
  viability: 103% (inactive)
[3]
  minimum viability: 88.2%

## O=C(O)COc1ccccc1/C=N/Nc1ccc(S(=O)(=O)Nc2ccc(Cl)cc2)cc1[N+](=O)[O-]
[1]
  viability: 103%
At 50 µM (top of the series)
  viability: 99.2% (inactive)
At 25 µM, stronger effect = lower value
  minimum viability: 90.6%

## COc1ccc(C(=O)Oc2ccc(/C=N/Nc3ccc(Cl)c(C(=O)O)c3)cc2OC)cc1
[1]
  viability: 104%
At 50 µM (top of the series)
  viability: 80.5% (inactive)
At 50 µM, stronger effect = lower value
  minimum viability: 80.5%

## COc1cc(/C=C(\C#N)c2nc3ccc(C)cc3[nH]2)cc([N+](=O)[O-])c1O
[1]
  viability: 90.4%
At 50 µM, stronger effect = lower value
  minimum viability: 74.1%

## COc1cc(/C=C2/C(=O)NN(c3ccc(Cl)cc3)C2=O)ccc1OC(=O)c1ccco1
[1]
  viability: 115%
At 50 µM (top of the series)
  viability: 96.4% (inactive)
At 50 µM, stronger effect = lower value
  minimum viability: 96.4%
